A word on the IC50: it is the concentration that gives 50% inhibition.

The structures appear in SMILES notation. “Also recorded” adds a separate entry of the source. Peptide text beside a SMILES is read from it.

Data on 1 compound can be found in article PMC13239830, “Antimicrobial Peptides Induce Cell Death in Marginal Zone Lymphoma Models Resistant to Targeted Therapies” (EJHaem, 2026).

The test system of series [1] is MZL cell lines (VL51, Karpas1718) and resistant derivatives. In words: In vitro cytotoxic activity (MTT, 72 h), summary over the MZL cell line panel. Format: cell-based. To be noted: derivatives resistant to BTK, PI3Kδ or PI3Kα/δ inhibitors. Here is the method:
For in vitro testing, we used two human MZL cell lines, VL51 and Karpas1718, along with derivative clones rendered resistant by prolonged exposure to the BTK inhibitor ibrutinib, the PI3Kδ inhibitor idelalisib, or the PI3Kα/δ inhibitor copanlisib (Table S1; methods described in the Supporting Information). […] The calculated IC50 values ranged from 5 to 10 µM (Table S2). […] These findings were validated by treating lymphoma cells and peripheral blood mononuclear cells (PBMCs) in parallel. […] While acquired resistance to BTK or PI3K inhibitors often involves secondary mutations in the drug‐binding site, activation of alternative kinases, or evasion of apoptosis through upregulation of anti‐apoptotic proteins, these adaptations are unlikely to protect tumor cells from AMP‐mediated membrane disruption. […]
(§1) The established human cell lines VL51 1 and Karpas1718 2, derived from bona fide marginal zone lymphomas (MZL), and their derivatives with secondary resistance obtained by long exposure to the BTK inhibitor ibrutinib, the PI3Kδ inhibitor idelalisib or the PI3Kα/δ inhibitor copanlisib (three from VL51 3-5, and one from Karpas1718 6). Cell lines were cultured in RPMI supplemented with fetal bovine serum (FBS) (10%) and penicillin-streptomycin-neomycin (≈5,000 units penicillin, 5 mg streptomycin, and 10 mg neomycin/mL; Sigma-Aldrich, Darmstadt, Germany). Cell line identities were confirmed by periodic short tandem repeat (STR) DNA fingerprinting using the Promega GenePrint 10 System kit (B9510).
(§2) Cells were regularly tested for mycoplasma negativity using the MycoAlert Mycoplasma Detection Kit (Lonza, Visp, Switzerland).
(§3) […] Purity (>95%) was confirmed by reverse-phase high-performance liquid chromatography (RP-HPLC) while molecular masses were verified by mass spectrometry. Peptides were dissolved in nuclease-free water, and 2 mM stock solutions were prepared 7.
(§4) Antarctic peptides were synthesized by Caslo Aps (Caslo Aps Kongens, Lyngby, Denmark) with 98% purity. Purity was confirmed by reverse-phase high-performance liquid chromatography (RP-HPLC), and molecular masses were verified by mass spectrometry. As previously reported, the peptide stock concentration in nuclease-free water (1 mM) was determined spectrophotometrically.
(§5) In vitro cytotoxic activity
(§6) Cells were manually seeded into 96-well plates (VL51, 10’000 cells per well; SSK41, 20’000 cells per well; Karpas1718, 30’000 cells per well). Treatments were applied manually, and cell viability was assessed after 72 hours using 3-(4,5-dimethylthiazol-2-yl)-2,5-diphenyltetrazolium bromide (MTT).
(§7) After a 4-hour incubation, the reaction was terminated by adding sodium dodecyl sulfate (SDS) lysis buffer. Plates were analyzed with Cytation3, and IC50s were calculated using the 4-parameter logistic model (R environment or GraphPad Prism, Version 10.6.1). Antarctic peptides were tested at 40μM, with 1:2 dilutions down to 625 nM. Temporins were tested at 100μM, with 1:5 dilutions down to 32 nM. […]

In series [2] the test system is primary human fibroblasts. To be noted: up to 25 µM, 24 h, ref [9]; cited from earlier work.
In a further series the test system is Karpas1718 cells. Format: cell-based, human. The settings on record: 72 h. Here is the method:
as §1, §2, §3, §4, §5, §6, §7

A further series has as its system VL51 cells. Format: cell-based, human. To be noted: 72 h. Here is the method:
as §1, §2, §3, §4, §5, §6, §7

The test system of series [3] is Karpas1718-Idel (idelalisib-resistant Karpas1718) cells. Format: cell-based, human. The settings on record: 72 h. Here is the method: as §1, §2, §3, §4, §5, §6, §7
Series [4] has as its system VL51-Ibru (ibrutinib-resistant VL51) cells. Format: cell-based, human. To be noted: 72 h. Here is the method: as §1, §2, §3, §4, §5, §6, §7
Series [5] has as its system VL51-Copa (copanlisib-resistant VL51) cells. Format: cell-based, human. To be noted: 72 h. On the procedure:
as §1, §2, §3, §4, §5, §6, §7

In series [6] the test system is VL51-Idel (idelalisib-resistant VL51) cells. Format: cell-based, human. The settings on record: 72 h. On the procedure:
as §1, §2, §3, §4, §5, §6, §7

In a further series the test system is nonmalignant cells. To be noted: prior studies; ref prior studies; cited from earlier work. From the text:
ABSTRACT Introduction Marginal zone lymphoma (MZL) is an indolent yet incurable B‐cell malignancy in which targeted agents such as BTK and PI3K inhibitors frequently fail due to resistance or toxicity. […] Methods Peptides were synthesized and tested for their anti‐proliferative activity in MZL cell lines. Results We evaluated the antitumor activity of seven natural AMPs, including Antarctic fish–derived trem ...

Another series deals with PBMCs. In words: Cell death and membrane integrity by Annexin V/PI staining. Format: cell-based. To be noted: 10 µM; 1 and 2 h; PBMCs treated in parallel; flow cytometry. On the procedure: as §1
Cells were regularly tested for mycoplasma negativity using the MycoAlert Mycoplasma Detection Kit (Lonza, Visp, Switzerland). […]
Antarctic peptides were synthesized by Caslo Aps (Caslo Aps Kongens, Lyngby, Denmark) with 98% purity. […] As previously reported, the peptide stock concentration in nuclease-free water (1 mM) was determined spectrophotometrically. […]
Subsequently, cells were stained with Annexin V and propidium iodide (PI) (Annexin V FITC Apoptosis Detection Kit, BMS500FI-300, Life Technologies) following the manufacturer ’s instructions and analyzed through flow cytometry and immunofluorescence (Leica Thunder microscope). […]

The next series has as its system rabbit erythrocytes. To be noted: ref [9]; cited from earlier work.
A further series concerns Karpas1718-Idel cells. In words: Cell death and membrane integrity by Annexin V/PI staining. Format: cell-based, human. To be noted: 10 µM, 1 and 2 h, flow cytometry. On the procedure: as §1, §2, §3
Antarctic peptides were synthesized by Caslo Aps (Caslo Aps Kongens, Lyngby, Denmark) with 98% purity. Purity was confirmed by reverse-phase high-performance liquid chromatography (RP-HPLC), and molecular masses were verified by mass spectrometry. As previously reported, the peptide stock concentration in nuclease-free water (1 mM) was determined spectrophotometrically. […]
Subsequently, cells were stained with Annexin V and propidium iodide (PI) (Annexin V FITC Apoptosis Detection Kit, BMS500FI-300, Life Technologies) following the manufacturer ’s instructions and analyzed through flow cytometry and immunofluorescence (Leica Thunder microscope).
PBMCs. Flow cytometric (A) and immunofluorescence (B) analyses of Annexin V/PI staining in Karpas1718-Idel cells and PBMCs after 1- and 2-hour treatments with W-trematocine or Temporin L at 10 µM. (B) Representative images (100x magnification) show brightfield, Annexin V (green), and PI […]
For orientation: A flow cytometer gives signals particle by particle.

Take `CC[C@H](C)[C@H](NC(=O)CNC(=O)[C@H](CCCNC(=N)N)NC(=O)[C@H](CC(C)C)NC(=O)[C@H](CC(C)C)NC(=O)[C@H](Cc1c[nH]cn1)NC(=O)CNC(=O)[C@H](Cc1ccccc1)NC(=O)[C@@H](N)Cc1c[nH]c2ccccc12)C(=O)N[C@H](C(=O)N[C@@H](CO)C(=O)N[C@H](C(=O)NCC(=O)N[C@@H](CCCCN)C(=O)N[C@@H](Cc1c[nH]cn1)C(=O)N[C@H](C(=O)N[C@@H](Cc1c[nH]cn1)C(=O)NCC(=O)N[C@@H](CC(C)C)C(=O)N[C@H](C(=O)N[C@H](C(=O)NCC(=O)O)[C@@H](C)O)[C@@H](C)CC)[C@@H](C)CC)C(C)C)C(C)C` [W-Trematocine] (H-WFGHLLRGIVSVGKHIHGLITG-OH; N-terminus and C-terminus assumed): the “activity in resistant models” value in [1] is given as “maintaining full activity in all resistant models”. For the same compound, the cytotoxicity entry in series [2] is listed as “negligible cytotoxicity”. In addition, the IC50 with Karpas1718 cells amounted to 5 µM; with VL51 cells, 5.5 µM; in series [3] it was 6.5 µM; in series [4], 6.5 µM; in [5] it was 7.1 µM; in [6], 7.6 µM. The “toxicity toward nonmalignant cells” value in the series on nonmalignant cells is recorded as “minimal toxicity”. In addition, the “sensitivity of PBMCs (Annexin V/PI staining)” value in the series on PBMCs is listed as “markedly less sensitive”. The hemolysis entry in the series on rabbit erythrocytes is given as “minimal hemolysis”. Further, in the series on Karpas1718-Idel cells, the “anti-lymphoma activity (Annexin V/PI staining)” value is given as “active in lymphoma cells; also recorded: potent anti‐lymphoma activity”.
